Read-outs that look alike come from different tables or passages of the source.
Columns and labels:
[1] = system: maximal electroshock seizures; experiment: Maximum Electroshock Seizure (MES) test, mice; format: in vivo; settings: for responders at 300 mg/kg: dose 300 mg/kg b.w.
How it was run: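 Mice received compound in methylcellulose i.p. or p.o. at 30, 100 and 300 mg/kg, with some tests at 10 and 3 mg/kg. At 0.5 or 4 h, after tetracaine eye-drops, current was delivered through corneal electrodes (60 Hz, 0.2 s, 50 mA). Groups were one mouse at 30 and 300 mg/kg and three at 100 mg/kg.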

[2] = system: maximal electroshock seizures; experiment: Maximum Electroshock Seizure (MES) test, rats; format: in vivo
Protocol: In order to define anticonvulsant activity, screening tests were performed, using animal models of seizures. […] The tests were based on administration of a compound to an animal and after certain time inducing state similar to epilepsy attack in human. Each substance (after dissolving in methylcellulose) was normally tested in doses 30, 100, and 300 mg/kg body weight (b.w.) (mice) or in 30 and 50 mg/kg b.w. (rats) in two possible routes of administration: intraperitoneal (i.p.) or oral (p.o.). […] […] (mice) the tests were also performed in doses 10 and 3 mg/kg b.w.
Maximum Electroshock Seizure (MES) test is an electric test, verifying activity towards generalized tonic-clonic seizures (grand mal epilepsy). […] Its procedure consists in administration to an animal a mentioned dose, […] (after anesthetic eye-drops: 0.5% tetracaine hydrochloride in 0.9% NaCl) and turning on electric current (60 Hz, 0.2 s, 50 mA (mice) or 150 mA (rats)). […]

[3] = system: neurotoxicity (rotarod); experiment: Neurotoxicity test (TOX), rotarod, mice; format: in vivo
[4] = system: voltage-gated sodium channels; experiment: Electrophysiology, voltage-gated sodium channels; format: biochemical
[5] = system: hippocampal kindling seizures; experiment: Electric hippocampal kindling, rats; format: in vivo
Protocol: (§1) For some compounds, a test for proconvulsant activity was performed (TTE test), as well as a test on activity in focal seizures (related with limbic system, 6 Hz test, hippocampal kindling). […] A test on inhibiting seizures induced by sound (Frings mice) was performed for compounds 12 and 26-28. Electrophysiology tests also have been performed, for seizures induced by bicuculline, picrotoxin, and NMDA. Prevention of (pilocarpine induced) status epilepticus has been noticed.

[6] = system: seizures induced by sound; experiment: Sound-induced seizures, Frings mice; format: in vivo; settings: Frings mice
Protocol: as §1

[7] = system: seizures induced by bicuculline; experiment: Bicuculline (BIC) induced seizures; format: in vivo
Protocol: as §1

[8] = system: seizures induced by picrotoxin; experiment: Picrotoxin (PIC) induced seizures; format: in vivo
Protocol: as §1

[9] = system: formalin-induced pain (acute/neuropathic and inflammatory phase); experiment: Formalin test, mice; format: in vivo; settings: mice
Protocol: The test was performed with use of formaldehyde as a substance causing pain (neuropathic and inflammatory afterwards) in mice, which were injected formalin into a hind limb.
During the first 10 min. after administration the mouse is licking the hind limb (acute phase), afterwards there is a short break in behavior change, and then the mouse licks its limb again for another 20-30 min. (inflammatory phase) (FIG. 3 for 12 and FIG. 4 for 26). The acute phase represents direct affection on the peripheral nerve and the inflammatory phase is related with secretion of inflammation mediators from the damaged tissue and nerves. The described model tests effectiveness of a substance to inhibit acute and chronic excessive neuronal discharges in response to peripheral nerves activation.

[10] = system: metrazol seizure threshold; experiment: Metrazol test, time to first twitch and first clonus; format: in vivo; settings: for average time until the first twitch: control 30.07 (±1.23) min.; for average time from administration until the first clonus: control 34.38 (±0.94) min.
Protocol: In the MES test it inhibits seizures by inhibiting post-synaptic excitatory current. […] In the metrazol test average time until the first twitch was 27.3±0.2 min. for the dose 5 mg/kg b.w. and 27.6 (±0.3) min. for the dose 30 mg/kg b.w., comparing to the control 30.07 (±1.23) min. Average time from administration until the first clonus was 33.6 (±1.23) min. for the dose 5 mg/kg b.w. and 32.70 (±1.28) for the dose 30 mg/kg b.w., comparing to the control 34.38 (±0.94) min.

[11] = system: 6 Hz focal seizures (limbic system); experiment: 6 Hz test, mice; format: in vivo; settings: for ED50: Mus musculus, ip, 0.25 h
Protocol: as §1

[12] = system: pilocarpine induced status epilepticus; experiment: Status epilepticus prevention (pilocarpine), rats; format: in vivo, Sprague Dawley albino rat; settings: i.p.; for Average weight loss ± S.E.M.: body weight loss 24 h after administration, 25 (27) or 45 (28) mg/kg b.w.; for protection in status epilepticus prevention: 25 (27) and 45 (28) mg/kg b.w.; for Protection: rats protected/tested, time 0 h, dose 25 (27) or 45 (28) mg/kg b.w.
Protocol: Status epilepticus prevention—an animal (Sprague Dawley albino rat male) is given a dose of tested substance. After 0, 0.25, 0.5, 1, 2, and 4 h pilocarpine is administered. The seizures induced are described by Racine's score. Compounds 27 and 28 were administered i.p. in doses 25 and 45 mg/kg b.w. respectively. […] Average body weight loss is measured 24 h after administration.

[13] = system: pentylenetetrazol-induced seizures; experiment: Subcutaneous Metrazol Test (ScMet), mice; format: in vivo; settings: Mus musculus, sc
Protocol: In order to define anticonvulsant activity, screening tests were performed, using animal models of seizures. […] The tests were based on administration of a compound to an animal and after certain time inducing state similar to epilepsy attack in human. Each substance (after dissolving in methylcellulose) was normally tested in doses 30, 100, and 300 mg/kg body weight (b.w.) (mice) or in 30 and 50 mg/kg b.w. (rats) in two possible routes of administration: intraperitoneal (i.p.) or oral (p.o.). Appropriate tests were performed 0.5 and 4 h after administration of the compound. […] (mice) the tests were also performed in doses 10 and 3 mg/kg b.w.
Subcutaneous Metrazol Test (ScMet) is a chemical test, where compounds are tested for activity in absence seizures (petit mal epilepsy). Pentetrazol (metrazol) is considered to block chloride channel in the GABAA receptor complex, therefore at a certain dose in animals it causes myoclonic jerks, next—clonic seizures, and then tonic seizures. The procedure consists in administration of a tested compound and after 0.5 or 4 h subcutaneous administration of pentylenetetrazol in the dose of 85 mg/kg b.w. (mice) or 70 mg/kg b.w. (rats) in a 0.85% solution in 0.9% NaCl. […] Normally the test is performed in single animals.

[14] = mice, dose 30 mg/kg b.w., time 0.5 h
[15] = mice, dose 100 mg/kg b.w., time 0.5 h
[16] = mice, dose 300 mg/kg b.w., time 0.5 h
[17] = Mus musculus, mice, 0.5 h, read-out: MES, No. of protected animals/No. of used animals
[18] = mice, dose 100 mg/kg b.w., 0.5 h
[19] = mice, dose 300 mg/kg b.w., 0.5 h

Cc1cccc(C)c1OCCNC(C)CO (stereo not drawn) [Compound 11, R,S-2N-[(2,6-dimethylphenoxy)ethyl]amino-1-propanol]
MES, No. of protected animals/No. of used animals [1, 14]: 1/1 | ED50 (MES, rats, p.o., 0.25 h) [2]: 47.03 mg/kg b.w. | TOX, No. of animals exhibiting motor impairment/no. of used animals ([3]; mouse, in vivo, 30 mg/kg): 2/4 | TOX, No. of animals exhibiting motor impairment/no. of used animals ([3]; mouse, in vivo, 100 mg/kg): 8/8 | TOX, No. of animals exhibiting motor impairment/no. of used animals ([3]; mouse, in vivo, 300 mg/kg): 4/4

Cc1cccc(C)c1OCCN[C@H](C)CO [Compound 12, R-(−)-2N-[(2,6-dimethylphenoxy)ethyl]amino-1-propanol]
responders at 10 mg/kg ([1]; Mus musculus, mice, dose 10 mg/kg b.w., time 0.5 h, read-out: MES, No. of protected animals/No. of used animals (converted)): 25% | responders at 30 mg/kg ([1]; Mus musculus, mice, dose 30 mg/kg b.w., time 0.5 h, read-out: MES, No. of protected animals/No. of used animals): 100% | responders at 100 mg/kg ([1]; Mus musculus, mice, dose 100 mg/kg b.w., time 0.5 h, read-out: MES, No. of protected animals/No. of used animals (converted)): 100% | responders at 100 mg/kg ([1]; Mus musculus, mice, dose 100 mg/kg b.w., time 4 h, read-out: MES, No. of protected animals/No. of used animals (converted)): 50% | ED50 (MES, female mice, i.p., 0.25 h) ([1]; female mice, i.p., 0.25 h): 22.28 mg/kg b.w. | activity in MES, mice ([1]; mice): active | ED50 (MES, mice, i.p., 0.25 h) ([1]; mice, i.p., 0.25 h): 5.34 mg/kg b.w. | ED50 (MES, mice, p.o., 0.25 h) ([1]; mice, p.o., 0.25 h): 51.19 mg/kg b.w. | effect on voltage-gated sodium channels [4]: blocks voltage-gated sodium channels dependently on the voltage | activity in electric kindling (rats, hippocampus) ([5]; 0.25 h after administration of 60 mg/kg b.w.): reveals activity | ED50 (kindling, rats, hippocampus, 0.25 h) [5]: > 30 mg/kg b.w. | ED50 (Frings mice, 0.25 h) [6]: 5.39 mg/kg b.w. | ED50 (BIC, 0.25 h) [7]: > 75 mg/kg b.w. | ED50 (PIC, 0.25 h) [8]: > 75 mg/kg b.w. | activity in MES, rats [2]: active | ED50 (MES, rats, i.p., 0.25 h) [2]: 7.43 mg/kg b.w. | ED50 (MES, rats, p.o., 0.25 h) [2]: 28.60 mg/kg b.w. | TOX, No. of animals exhibiting motor impairment/no. of used animals [3, 15]: 8/8 | TOX, No. of animals exhibiting motor impairment/no. of used animals ([3]; mice, dose 100 mg/kg b.w., time 4 h, 100 mg/kg): 1/3 | TOX, No. of animals exhibiting motor impairment/no. of used animals [3, 16]: 4/4 | formalin test result (FIG. 3) [9]: inhibiting neuropathic pain (first 10 min. phase) and inflammatory pain (next 30 min. phase) | average time until the first twitch ([10]; dose 5 mg/kg b.w.): 27.3 ± 0.2 min | average time from administration until the first clonus ([10]; dose 5 mg/kg b.w.): 33.6 (±1.23) min. | average time until the first twitch ([10]; dose 30 mg/kg b.w.): 27.6 (±0.3) min. | average time from administration until the first clonus ([10]; dose 30 mg/kg b.w.): 32.70 (±1.28) | ED50 ([11]; read-out: ED50 (6 Hz, female mice, i.p., 22 mA, 0.25 h)): 7.06 mg/kg | ED50 ([11]; read-out: ED50 (6 Hz, mice, i.p., 22 mA, 0.25 h)): 43.8 mg/kg | ED50 (6 Hz, female mice, i.p., 44 mA, 0.25 h) ([11]; female mice, i.p., 44 mA): 41.3 mg/kg b.w. | ED50 (6 Hz, mice, i.p., 44 mA, 0.25 h) ([11]; mice, i.p., 44 mA): 30.02 mg/kg b.w.

Cc1cccc(C)c1OCCN[C@@H](C)CO [Compound 13, S-(+)-2N-[(2,6-dimethylphenoxy)ethyl]amino-1-propanol]
MES, No. of protected animals/No. of used animals ([1]; mice, dose 10 mg/kg b.w., time 0.5 h): 2/4 | MES, No. of protected animals/No. of used animals [1, 14]: 1/1 | ED50 (MES, mice, i.p., 0.25 h) ([1]; mice, i.p., 0.25 h): 8.59 mg/kg b.w. | ED50 (MES, rats, i.p., 0.25 h) [2]: 6.50 mg/kg b.w. | TOX, No. of animals exhibiting motor impairment/no. of used animals ([3]; mouse, in vivo, 100 mg/kg): 8/8 | TOX, No. of animals exhibiting motor impairment/no. of used animals ([3]; mouse, in vivo, 300 mg/kg): 4/4

CC[C@H](CO)NCCOc1c(C)cccc1Cl [Compound 27, R-(−)-2N-[(2-chlor-6-methylphenoxy)ethyl]amino-1-butanol]
MES, No. of protected animals/No. of used animals [1, 14]: 1/1 | MES, No. of protected animals/No. of used animals [1, 15]: 1/1 | Average weight loss ± S.E.M. [12]: 8.3 ± 7.1 | protection in status epilepticus prevention [12]: 2 rats out of 8 | Protection [12]: 2/8 | TOX, No. of animals exhibiting motor impairment/no. of used animals [3, 15]: 8/8 | TOX, No. of animals exhibiting motor impairment/no. of used animals [3, 16]: 4/4

CC[C@@H](CO)NCCOc1c(C)cccc1Cl [Compound 28, S-(+)-2N-[(2-chlor-6-methylphenoxy)ethyl]amino-1-butanol]
MES, No. of protected animals/No. of used animals [1, 14]: 1/1 | MES, No. of protected animals/No. of used animals [1, 15]: 1/1 | ED50 (kindling, rats, hippocampus, 0.25 h) [5]: 15.81 mg/kg b.w. | Average weight loss ± S.E.M. [12]: 3.8 ± 5.7 | protection in status epilepticus prevention [12]: 3 rats out of 8 | Protection [12]: 3/8 | TOX, No. of animals exhibiting motor impairment/no. of used animals [3, 15]: 8/8 | TOX, No. of animals exhibiting motor impairment/no. of used animals [3, 16]: 4/4

Cc1cccc(C)c1OCC(=O)N[C@H]1CC[C@H](O)CC1 [Compound 64, trans-4N-[(2,6-dimethylphenoxy)acetyl]amino-1-cyclohexanol]
responders at 100 mg/kg ([1]; Mus musculus, mice, dose 100 mg/kg b.w., 0.5 h, read-out: MES, No. of protected animals/No. of used animals (converted)): 100% | responders at 300 mg/kg [1, 17]: 100% | melting point: 161 to 162 °C | TOX, No. of animals exhibiting motor impairment/no. of used animals [3, 18]: 7/8 | TOX, No. of animals exhibiting motor impairment/no. of used animals [3, 19]: 4/4 | responders at 300 mg/kg ([13]; dose 300 mg/kg b.w., 0.5 h, read-out: ScMet, No. of protected animals/No. of used animals): 100%

Cc1cccc(C)c1OCC(=O)N[C@H](C)C(N)=O [Compound 65, D-2N-[(2,6-dimethylphenoxy)acetyl]aminopropionamide]
responders at 300 mg/kg [1, 17]: 100% | melting point: 177 to 178 °C | TOX, No. of animals exhibiting motor impairment/no. of used animals [3, 18]: 2/8 | TOX, No. of animals exhibiting motor impairment/no. of used animals [3, 19]: 1/4 | responders at 30 mg/kg ([13]; dose 30 mg/kg b.w., 4 h, read-out: ScMet, No. of protected animals/No. of used animals (converted)): 20%

Reference: patent US8633251B2, “Derivatives of aminoalkanols, method of obtaining of aminoalkanols and their use” (Uniwersytet Jagiellonski, priority 2008, dated 2014)
